From patent US11110126B2, “Method of expanding NK cell and composition for culturing” (Korea University Research and Business Foundation, priority 2015, dated 2021)

Experiments:
NK cells [1] = assay: ROS generation in in vitro-expanded NK cells (DCF-DA flow cytometry); assay type: cell-based, human; conditions: 100 μM DCF-DA; for order of ROS generation among treated groups: rank order of groups, lowest ROS first
Procedure: To measure ROS generated in in vitro-expanded NK cells, NK cells cultured by treatment with an inhibitor individually or in combination were harvested. 1×10^6 cells were seeded per well in a 24-well plate, cultured in a 5% CO2 incubator for 30 minutes, and then collected. The cells were washed once with 1 ml of PBS, followed by flow cytometry using 100 μM DCF-DA. The experiment was performed on a control group which was not treated, and experimental groups treated with apocynin, trolox, pifithrin-α and trolox+pifithrin-α, respectively, and the results are shown in FIG. 9.

NK cells [2] = assay: Influence of ROS and/or p53 inhibitor on ex-vivo culture (expansion) of NK cells, cell number by hemocytometer; assay type: cell-based, human; conditions: PBMC-derived NK cells cultured 10 days, then inhibitor at three-day intervals, counted after culture for 2 weeks; apocynin 400 μM, trolox 50 μM, pifithrin-α 1 μM, combination 50 μM trolox + 500 nM pifithrin-α
Procedure: Human blood was prepared, and subjected to centrifugation at 2500 rpm for 30 minutes using Ficoll (Ficoll-Paque™ PLUS, GE Healthcare). Then, peripheral blood mononuclear cells were isolated from a buffy coat. Afterward, a Jurkat cell line irradiated at 100 Gy and an EBV-LCL cell line were co-cultured with PBMCs:KL-1:EBV-LCL in a ratio of 1:0.5:0.5 in hRPMI medium prepared by adding 10% FBS and 1% penicillin/streptomycin to RPMI1640 medium in the presence of 500 U/ml IL-2, and the medium was exchanged with hRPMI medium supplemented with 500 U/ml IL-2 once for 2 to 3 days. To examine the influence of an ROS inhibitor on NK cells, the NK cells were cultured for 10 days under the conditions of Preparation Example 1. Then, 400 μM of an apocynin (Calbiochem), 50 μM of trolox (Santa Cruz) and 1 μM of pifithrin-α (Santa Cruz) were treated individually, and 50 μM trolox and 500 nM pifithrin-α were treated in a combination. The inhibitor was treated at three-day intervals, and a cell number was assessed after culture for 2 weeks. Here, the medium was exchanged with hRPMI medium added with 500 U/ml of IL-2 once for three days, and a cell number was calculated using a hemocytometer.

Row | Compound | order of ROS generation among treated groups (NK cells [1]) | NK cell number compared with the control group (NK cells [2]) | ROS generation compared with the control group (NK cells [1]; NK cells cultured with inhibitor)
1 | COc1cc(C(C)=O)ccc1O [apocynin, 1-(4-hydroxy-3-methoxyphenyl)-ethanone] | trolox<pifithrin-α<trolox+pifithrin-α<apocynin<control group | statistically significant increase | 
2 | Br.Cc1ccc(C(=O)Cn2c3c(sc2=N)CCCC3)cc1 [pifithrin-α, 2-(2-imino-4,5,6,7-tetrahydrobenzothiazol-3-yl)-1-p-tolylethanone hydrobromide] | trolox<pifithrin-α<trolox+pifithrin-α<apocynin<control group | statistically significant increase | 
3 | Cc1c(C)c2c(c(C)c1O)CCC(C)(C(=O)O)O2 (stereo not shown) [trolox, 6-hydroxy-2,5,7,8-tetramethylchroman-2-carboxylic acid] | trolox<pifithrin-α<trolox+pifithrin-α<apocynin<control group | statistically significant increase | significantly decreased
